pIC50: −log10 of the molar value. The source made the active and inactive calls.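 Rule for the calls: active = IC50 of 10 µM or lower; inactive = IC50 above 10 µM.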
Molecular target: Mitogen-activated protein kinase kinase kinase 5 (Homo sapiens) (UniProt Q99683)
Experiment: ASK1 kinase inhibitor potency, dose response, biochemical, AlphaScreen, MKK6 phosphorylation (AID 1159605);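 note: ASK1 phosphorylation of MKK6 substrate detected with anti-phospho-MKK6 antibody beads; inhibitors lower the luminescent signal by blocking MKK6 phosphorylation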
Conditions: AlphaScreen luminescence

Mitogen-activated protein kinase kinase kinase 5 (Homo sapiens), sequence (Q99683 whole entry, looked up): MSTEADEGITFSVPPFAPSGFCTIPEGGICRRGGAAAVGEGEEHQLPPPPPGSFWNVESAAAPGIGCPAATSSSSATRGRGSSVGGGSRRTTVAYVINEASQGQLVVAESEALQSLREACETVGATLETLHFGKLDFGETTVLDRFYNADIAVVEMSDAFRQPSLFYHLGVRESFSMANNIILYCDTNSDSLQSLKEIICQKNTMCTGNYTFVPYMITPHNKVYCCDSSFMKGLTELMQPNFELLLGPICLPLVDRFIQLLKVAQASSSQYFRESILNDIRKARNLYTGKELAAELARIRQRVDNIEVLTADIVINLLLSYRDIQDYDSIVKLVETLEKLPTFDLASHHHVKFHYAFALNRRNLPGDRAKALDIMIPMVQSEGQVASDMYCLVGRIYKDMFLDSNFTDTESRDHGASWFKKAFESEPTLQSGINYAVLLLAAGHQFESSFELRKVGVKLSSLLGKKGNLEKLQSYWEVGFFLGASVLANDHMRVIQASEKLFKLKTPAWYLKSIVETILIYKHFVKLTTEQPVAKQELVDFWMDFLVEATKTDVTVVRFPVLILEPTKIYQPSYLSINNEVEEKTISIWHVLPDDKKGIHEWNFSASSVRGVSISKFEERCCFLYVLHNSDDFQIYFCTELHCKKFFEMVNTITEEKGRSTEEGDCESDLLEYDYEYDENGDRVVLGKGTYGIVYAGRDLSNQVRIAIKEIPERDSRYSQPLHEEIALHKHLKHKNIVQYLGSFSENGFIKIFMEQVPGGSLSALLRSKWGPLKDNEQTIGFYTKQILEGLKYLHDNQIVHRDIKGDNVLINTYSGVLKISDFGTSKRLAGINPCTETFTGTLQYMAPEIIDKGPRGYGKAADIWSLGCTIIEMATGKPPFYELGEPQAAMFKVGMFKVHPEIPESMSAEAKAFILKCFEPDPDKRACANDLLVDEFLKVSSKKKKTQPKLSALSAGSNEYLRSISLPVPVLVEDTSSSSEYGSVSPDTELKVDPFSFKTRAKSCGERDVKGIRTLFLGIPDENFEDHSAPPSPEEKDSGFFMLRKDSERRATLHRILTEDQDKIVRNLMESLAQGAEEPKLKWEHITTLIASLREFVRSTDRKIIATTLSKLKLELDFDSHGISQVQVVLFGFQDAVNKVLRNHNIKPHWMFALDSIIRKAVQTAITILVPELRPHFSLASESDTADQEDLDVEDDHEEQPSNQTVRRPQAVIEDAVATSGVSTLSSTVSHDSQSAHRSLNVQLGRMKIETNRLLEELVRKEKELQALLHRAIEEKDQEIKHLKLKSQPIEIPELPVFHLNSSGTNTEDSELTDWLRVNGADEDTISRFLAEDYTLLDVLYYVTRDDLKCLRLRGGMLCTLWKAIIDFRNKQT

Structure (SMILES) | IC50 | pIC50
COc1ccc(-c2nc3ncnc(Nc4cc(OC)c(OC)c(OC)c4)c3[nH]2)cn1 | > 18.1 µM (inactive) | –
Cn1ccc2cc(-c3cc(Nc4ccc(N5CCOCC5)cc4)nc(N)n3)ccc21 | > 20 µM (inactive) | –
c1cc(-n2cnc3c(Nc4ccc5c(c4)OCO5)nc(N4CCN(Cc5ccc6c(c5)OCO6)CC4)nc32)cs1 | > 19.9 µM (inactive) | –
CC(C)n1cnc2c(Nc3ccc4c(c3)OCO4)nc(Nc3ccc(N4CCOCC4)cc3)nc21 | > 20 µM (inactive) | –
FC(F)(F)c1cccc(CNc2nc(Nc3ccc(N4CCOCC4)cc3)nc3nc[nH]c23)c1 | inactive | –
CN(C)c1cccc(Nc2cc(Nc3ccccc3)ncn2)c1 | > 22.2 µM (inactive) | –
COc1cc2nc(Nc3cccc(N(C)C)c3)nc(Nc3ccc(NC(C)=O)cc3)c2cc1OC | – | 5.11
CN(C)c1cccc(Nc2nc(Nc3ccc4c(c3)OCO4)c3ncn(Cc4ccc(C(F)(F)F)cc4)c3n2)c1 | inactive | –
FC(F)(F)c1ccc(Cn2cnc3c(Nc4ccc5c(c4)OCO5)nc(N4CCN(c5ccccn5)CC4)nc32)cc1 | > 20 µM (inactive) | –
Cc1cc(Nc2ccc3c(c2)OCO3)nc(Nc2cccc(N(C)C)c2)n1 | – | 5.27
FC(F)(F)c1ccc(Cn2cnc3c(Nc4ccc5c(c4)OCO5)nc(Nc4ccc(N5CCOCC5)cc4)nc32)cc1 | – | 5.27
O=C(NCCN1CCOCC1)c1cccc(-n2ncc3cc(Nc4c(F)cccc4[N+](=O)[O-])ccc32)c1 | > 19.2 µM (inactive) | –
Cc1c[nH]c2ncnc(-c3ccc(NC(=O)Nc4ccccc4)cc3)c12 | > 19.2 µM (inactive) | –
CC(C)CNC(=O)c1ccc2c(c1)CC(c1nc3ncc(-c4ccnc(N)n4)cc3[nH]1)CO2 (configuration not stated) | > 19.2 µM (inactive) | –
CCN(CC)c1nc(Nc2ccc3c(c2)OCO3)nc(N2CCC(N3CCOCC3)CC2)n1 | inactive | –
CN(C)c1cc(F)cc(-c2ccnc(Nc3ccc(-n4cnc(N5CCC(O)CC5)n4)cc3)n2)c1 | > 19.2 µM (inactive) | –
Cc1ccc(-c2cccc3cnc(Nc4ccc(-n5cnc(C)n5)cc4)nc23)cn1 | > 19.2 µM (inactive) | –
c1ccc2c(-c3nccc(Nc4ccc(N5CCOCC5)cc4)n3)csc2c1 | > 21.8 µM (inactive) | –
Cc1cc(NCCc2ccc(O)cc2)nc(N2CCN(Cc3ccc4c(c3)OCO4)CC2)n1 | > 18.1 µM (inactive) | –
COc1cc(Nc2nc(-c3ccc(C(N)=O)cc3)ncc2C)cc(OC)c1OC | inactive | –
Cc1cc(NCc2cccc(C(F)(F)F)c2)nc(Nc2ccc(N3CCOCC3)cc2)n1 | – | 5.18

Structure (SMILES) | IC50 | pIC50
c1cc(Nc2ccc3c(c2)OCO3)nc(Nc2ccc(N3CCOCC3)cc2)n1 | inactive | –
Cc1[nH]ncc1-c1ccc2nc(NC(=O)C3COc4ccc(F)cc4C3)sc2c1 (configuration not stated) | > 19.2 µM (inactive) | –
COc1cc2nc(Nc3ccc(N4CCOCC4)cc3)nc(Nc3ccccc3)c2cc1OC | > 20.1 µM (inactive) | –
COc1ccc(CCNc2nc(Nc3cccc(N(C)C)c3)nc3cc(OC)c(OC)cc23)cc1 | inactive | –
COc1cc2nc(NCc3ccc4c(c3)OCO4)nc(Nc3ccc(N4CCOCC4)cc3)c2cc1OC | > 19.9 µM (inactive) | –
c1cc(-n2cnc3c(NC4CC4)nc(Nc4ccc(N5CCOCC5)cc4)nc32)cs1 | inactive | –
COc1ccc(CCNC(=O)c2ccnc(Nc3cccc(N(C)C)c3)c2)cc1 | > 20 µM (inactive) | –
COc1cc(NC(=O)c2cccc(-n3cc(NC(=O)Nc4ccc(-c5ccccc5)cc4)cn3)c2)cc(OC)c1OC | > 19.2 µM (inactive) | –
c1cn(-c2ccc(Nc3nc4ncnc(Nc5ccc6c(c5)OCO6)c4[nH]3)cc2)cn1 | > 21.9 µM (inactive) | –
COc1cc2nc(Nc3cccc(N(C)C)c3)nc(Nc3ccc(N4CCOCC4)cc3)c2cc1OC | > 19.9 µM (inactive) | –
c1ccc(Nc2cc(-c3ccnc(Nc4ccc(N5CCOCC5)cc4)c3)nn2-c2ccccc2)cc1 | > 19.2 µM (inactive) | –
CN(C)c1cccc(Nc2ccc(-n3cc(CC(=O)Nc4ccc5c(c4)OCO5)c4ccccc43)nn2)c1 | > 19 µM (inactive) | –
c1ccc(CN2CCC(Nc3nc(N4CCN(Cc5ccc6c(c5)OCO6)CC4)nc4c3ncn4C3CCCCC3)CC2)cc1 | inactive | –
COc1cc(Nc2nc(N3CCc4ccccc4C3)nc3c2ncn3C(C)C)cc(OC)c1OC | > 20.1 µM (inactive) | –
O=C(Cc1cn(-c2ccc(Nc3nccc4ccccc34)nn2)c2ccccc12)Nc1ccc2c(c1)OCO2 | > 21.6 µM (inactive) | –
COc1ccc(CCNc2cc(C)nc(Nc3cccc(N(C)C)c3)n2)cc1 | – | 5.18
COc1cc2nc(Nc3ccncc3)nc(Nc3ccc(N4CCOCC4)cc3)c2cc1OC | inactive | –
CC(C)n1cnc2c(Nc3ccc4c(c3)OCO4)nc(Nc3cccc(N(C)C)c3)nc21 | > 19.9 µM (inactive) | –
NC(=O)c1cc2ccccc2cc1Nc1ccnc(Nc2ccc(N3CCOCC3)cc2)c1 | > 19.2 µM (inactive) | –
COc1ccc(CCNc2nc(Nc3ccc(N4CCOCC4)cc3)nc3c2ncn3Cc2ccc(C(F)(F)F)cc2)cc1 | – | 5.28
Oc1ccc(CCNc2nc(N3CCN(c4ccccn4)CC3)nc3c2ncn3-c2ccsc2)cc1 | > 21.3 µM (inactive) | –

Reference: PubChem BioAssay AID1159605 (The Scripps Research Institute Molecular Screening Center, 2016)
